Test results as given in US10654832B2, “3-(benzoimidazol-2-YL)-indazole inhibitors of the Wnt signaling pathway and therapeutic uses thereof” (Samumed, LLC, priority 2013, dated 2020).

Tested on: Wnt activity (wnt-responsive SP5 promoter luciferase reporter in SW480 cells)
Assay: Wnt activity reporter assay (SP5 promoter-firefly luciferase in SW480 cells)
Type: cell-based
Details: Homo sapiens; SW480 colon cancer cells with SP5 promoter luciferase reporter; 24 h after compound addition; half-log dilutions, three micromolar top concentration; normalized to DMSO; read-out: Wnt inhibition
Excerpt: The above synthesized compounds were screened using the assay procedure for Wnt activity described below.
Reporter cell lines were generated by stably transducing cells of cancer cell lines (e.g., colon cancer) with a lentiviral construct that include a wnt-responsive promoter driving expression of the firefly luciferase gene.
Lentiviral constructs were made in which the SP5 promoter, a promoter having eight TCF/LEF binding sites derived from the SP5 promoter, was linked upstream of the firefly luciferase gene. The lentiviral constructs included a hygromycin resistance gene as a selectable marker. The SP5 promoter construct was used to transduce SW480 cells, a colon cancer cell line having a mutated APC gene that generates a truncated APC protein, leading to de-regulated accumulation of β-catenin.
Cultured SW480 cells bearing a reporter construct were distributed at approximately 10,000 cells per well into 384 well multiwell plates. Compounds were then added to the wells in half-log dilutions using a three micromolar top concentration. A series of control wells for each cell type received only buffer and compound solvent. Twenty-four hours after the addition of compound, reporter activity for luciferases was assayed, for example, by addition of the BrightGlo luminescence reagent (Promega) and the Victor3 plate reader (Perkin Elmer). Readings were normalized to DMSO only treated cells, and normalized activities were then used for the IC50 calculations.

Point of comparison: `CCCCC(=O)Nc1cncc(-c2ccc3[nH]nc(-c4nc5c(-n6cnc(C)c6)cccc5[nH]4)c3c2)c1` [Compound 186, N-(5-(3-(4-(4-Methyl-1H-imidazol-1-yl)-1H-benzo[d]imidazol-2-yl)-1H-indazol-5-yl)pyridin-3-yl)pentanamide], IC50 6 nM. Against it:
- CCNCc1cncc(-c2ccc3[nH]nc(-c4nc5c(-c6ccsc6)cccc5[nH]4)c3c2)c1 [Compound 246, N-((5-(3-(4-(Thiophen-3-yl)-1H-benzo[d]imidazol-2-yl)-1H-indazol-5-yl)pyridin-3-yl)methyl)ethanamine] — 2.3-fold higher, 14 nM
- CCNCc1cncc(-c2ccc3[nH]nc(-c4nc5ccccc5[nH]4)c3c2)c1 [Compound 222] — 39-fold higher, 235 nM
- Cc1ccncc1-c1ccc2[nH]nc(-c3nc4c(-c5cccnc5)cccc4[nH]3)c2c1 [Compound 77, 5-(4-Methylpyridin-3-yl)-3-(4-(pyridin-3-yl)-1H-benzo[d]imidazol-2-yl)-1H-indazole] — 10-fold higher, 63 nM
- Cc1cn(-c2cccc3[nH]c(-c4n[nH]c5ccc(-c6cncc(NC(=O)CC(C)(C)C)c6)cc45)nc23)cn1 [Compound 184, 3,3-Dimethyl-N-(5-(3-(4-(4-methyl-1H-imidazol-1-yl)-1H-benzo[d]imidazol-2-yl)-1H-indazol-5-yl)pyridin-3-yl)butanamide] — 19-fold higher, 115 nM
- c1cncc(-c2ccc3[nH]nc(-c4nc5ccccc5[nH]4)c3c2)c1 [Compound 220] — 28-fold higher, 165 nM
- c1cc(N2CCCCC2)c2nc(-c3n[nH]c4ccc(-c5cncc(CN6CCCC6)c5)cc34)[nH]c2c1 [Compound 158, 3-(4-(Piperidin-1-yl)-1H-benzo[d]imidazol-2-yl)-5-(5-(pyrrolidin-1-ylmethyl)pyridin-3-yl)-1H-indazole] — 19-fold higher, 116 nM
- CC(C)CC(=O)Nc1cncc(-c2ccc3[nH]nc(-c4nc5ccccc5[nH]4)c3c2)c1 [Compound 218, N-(5-(3-(1H-Benzo[d]imidazol-2-yl)-1H-indazol-5-yl)pyridin-3-yl)-3-methylbutanamide] — 6.2-fold higher, 37 nM
- CC(C)C(=O)Nc1cncc(-c2ccc3[nH]nc(-c4nc5c(-c6ccc(F)cc6)cccc5[nH]4)c3c2)c1 [Compound 33, N-(5-(3-(4-(4-Fluorophenyl)-1H-benzo[d]imidazol-2-yl)-1H-indazol-5-yl)pyridin-3-yl)isobutyramide] — 5.7-fold higher, 34 nM
- Cc1cn(-c2cccc3[nH]c(-c4n[nH]c5ccc(-c6cncc(CNCc7ccccc7)c6)cc45)nc23)cn1 [Compound 191, N-Benzyl-1-(5-(3-(4-(4-methyl-1H-imidazol-1-yl)-1H-benzo[d]imidazol-2-yl)-1H-indazol-5-yl)pyridin-3-yl)methanamine] — 23-fold higher, 138 nM
- Fc1ccccc1-c1cccc2[nH]c(-c3n[nH]c4ccc(-c5cncc(CNCC6CCCC6)c5)cc34)nc12 [Compound 72, 1-Cyclopentyl-N-((5-(3-(4-(2-fluorophenyl)-1H-benzo[d]imidazol-2-yl)-1H-indazol-5-yl)pyridin-3-yl)methyl)methanamine] — 190-fold higher, 1140 nM
- CN(C)Cc1cncc(-c2ccc3[nH]nc(-c4nc5c(-c6ccccn6)cccc5[nH]4)c3c2)c1 [Compound 133, N,N-Dimethyl-1-(5-(3-(4-(pyridin-2-yl)-1H-benzo[d]imidazol-2-yl)-1H-indazol-5-yl)pyridin-3-yl)methanamine] — 21-fold higher, 127 nM
- O=C(Nc1cncc(-c2ccc3[nH]nc(-c4nc5c(N6CCCCC6)cccc5[nH]4)c3c2)c1)C1CCCCC1 [Compound 166, N-(5-(3-(4-(Piperidin-1-yl)-1H-benzo[d]imidazol-2-yl)-1H-indazol-5-yl)pyridin-3-yl)cyclohexanecarboxamide] — 74-fold higher, 445 nM
- O=C(Nc1cncc(-c2ccc3[nH]nc(-c4nc5c(-c6cccnc6)cccc5[nH]4)c3c2)c1)C1CCCCC1 [Compound 94, N-(5-(3-(4-(Pyridin-3-yl)-1H-benzo[d]imidazol-2-yl)-1H-indazol-5-yl)pyridin-3-yl)cyclohexanecarboxamide] — 20-fold higher, 121 nM
- CN(C)c1cncc(-c2ccc3[nH]nc(-c4nc5c(N6CCCCC6)cccc5[nH]4)c3c2)c1 [Compound 151, N,N-Dimethyl-5-(3-(4-(piperidin-1-yl)-1H-benzo[d]imidazol-2-yl)-1H-indazol-5-yl)pyridin-3-amine] — 6.8-fold higher, 41 nM
- O=C(Nc1cncc(-c2ccc3[nH]nc(-c4nc5c(-c6ccc(F)cc6)cccc5[nH]4)c3c2)c1)C1CCC1 [Compound 44, N-(5-(3-(4-(4-Fluorophenyl)-1H-benzo[d]imidazol-2-yl)-1H-indazol-5-yl)pyridin-3-yl)cyclobutanecarboxamide] — 23-fold higher, 140 nM
- CC(C)(C)C(=O)Nc1cncc(-c2ccc3[nH]nc(-c4nc5c(-c6ccoc6)cccc5[nH]4)c3c2)c1 [Compound 272, N-(5-(3-(4-(Furan-3-yl)-1H-benzo[d]imidazol-2-yl)-1H-indazol-5-yl)pyridin-3-yl)pivalamide] — 26-fold higher, 159 nM
- CN1CCN(c2cccc3[nH]c(-c4n[nH]c5ccc(-c6cncc(NC(=O)Cc7ccccc7)c6)cc45)nc23)CC1 [Compound 202, N-(5-(3-(4-(4-methylpiperazin-1-yl)-1H-benzo[d]imidazol-2-yl)-1H-indazol-5-yl)pyridin-3-yl)-2-phenylacetamide] — 41-fold higher, 248 nM
- O=C(Nc1cncc(-c2ccc3[nH]nc(-c4nc5c(-c6cccc(F)c6)cccc5[nH]4)c3c2)c1)C1CC1 [Compound 19, N-(5-(3-(4-(3-Fluorophenyl)-1H-benzo[d]imidazol-2-yl)-1H-indazol-5-yl)pyridin-3-yl)cyclopropanecarboxamide] — within 1.5-fold, 5 nM
- O=C(Nc1cncc(-c2ccc3[nH]nc(-c4nc5c(-c6ccccc6F)cccc5[nH]4)c3c2)c1)C1CCCC1 [Compound 69, N-(5-(3-(4-(2-Fluorophenyl)-1H-benzo[d]imidazol-2-yl)-1H-indazol-5-yl)pyridin-3-yl)cyclopentanecarboxamide] — 3.8-fold higher, 23 nM
- CC(C)(C)CC(=O)Nc1cncc(-c2ccc3[nH]nc(-c4nc5ccccc5[nH]4)c3c2)c1 [Compound 232, N-(5-(3-(1H-Benzo[d]imidazol-2-yl)-1H-indazol-5-yl)pyridin-3-yl)-3,3-dimethylbutanamide] — 11-fold higher, 65 nM
- c1cc(-c2ccsc2)c2nc(-c3n[nH]c4ccc(-c5cncc(CN6CCCC6)c5)cc34)[nH]c2c1 [Compound 254, 5-(5-(Pyrrolidin-1-ylmethyl)pyridin-3-yl)-3-(4-(thiophen-3-yl)-1H-benzo[d]imidazol-2-yl)-1H-indazole] — 3-fold lower, 2 nM
- CCC(=O)Nc1cncc(-c2ccc3[nH]nc(-c4nc5c(-c6cccc(F)c6)cccc5[nH]4)c3c2)c1 [Compound 1, N-(5-(3-(4-(3-Fluorophenyl)-1H-benzo[d]imidazol-2-yl)-1H-indazol-5-yl)pyridin-3-yl)propionamide] — 3-fold lower, 2 nM
- O=C(Nc1cncc(-c2ccc3[nH]nc(-c4nc5c(-c6ccc(F)cc6)cccc5[nH]4)c3c2)c1)C1CC1 [Compound 43, N-(5-(3-(4-(4-Fluorophenyl)-1H-benzo[d]imidazol-2-yl)-1H-indazol-5-yl)pyridin-3-yl)cyclopropanecarboxamide] — 7.2-fold higher, 43 nM
- Nc1cncc(-c2ccc3[nH]nc(-c4nc5c(-c6ccoc6)cccc5[nH]4)c3c2)c1 [Compound 267, 5-(3-(4-(Furan-3-yl)-1H-benzo[d]imidazol-2-yl)-1H-indazol-5-yl) pyridin-3-amine] — higher, ≥ 4150 nM
- Cc1cn(-c2cccc3[nH]c(-c4n[nH]c5ccc(-c6cncc(NC(=O)c7ccccc7)c6)cc45)nc23)cn1 [Compound 179, N-(5-(3-(4-(4-Methyl-1H-imidazol-1-yl)-1H-benzo[d]imidazol-2-yl)-1H-indazol-5-yl)pyridin-3-yl)benzamide] — 1.7-fold higher, 10 nM
- O=C(Nc1cncc(-c2ccc3[nH]nc(-c4nc5c(-c6ccncc6)cccc5[nH]4)c3c2)c1)C1CCCC1 [Compound 117, N-(5-(3-(4-(Pyridin-4-yl)-1H-benzo[d]imidazol-2-yl)-1H-indazol-5-yl)pyridin-3-yl)cyclopentanecarboxamide] — 9-fold higher, 54 nM
- CCCCC(=O)Nc1cncc(-c2ccc3[nH]nc(-c4nc5c(-c6ccncc6)cccc5[nH]4)c3c2)c1 [Compound 114, N-(5-(3-(4-(Pyridin-4-yl)-1H-benzo[d]imidazol-2-yl)-1H-indazol-5-yl)pyridin-3-yl)pentanamide] — 11-fold higher, 67 nM
- Cc1ccncc1-c1ccc2[nH]nc(-c3nc4ccccc4[nH]3)c2c1 [Compound 221, 3-(1H-Benzo[d]imidazol-2-yl)-5-(4-methylpyridin-3-yl)-1H-indazole] — 53-fold higher, 317 nM
- O=C(Nc1cncc(-c2ccc3[nH]nc(-c4nc5c(-c6cccnc6)cccc5[nH]4)c3c2)c1)C1CCC1 [Compound 92, N-(5-(3-(4-(Pyridin-3-yl)-1H-benzo[d]imidazol-2-yl)-1H-indazol-5-yl)pyridin-3-yl)cyclobutanecarboxamide] — within 1.5-fold, 8 nM
- O=C(Nc1cncc(-c2ccc3[nH]nc(-c4nc5c(-c6ccccc6F)cccc5[nH]4)c3c2)c1)c1ccccc1 [Compound 59, N-(5-(3-(4-(2-Fluorophenyl)-1H-benzo[d]imidazol-2-yl)-1H-indazol-5-yl)pyridin-3-yl)benzamide] — 55-fold higher, 332 nM
- CCCCC(=O)Nc1cncc(-c2ccc3[nH]nc(-c4nc5c(-c6cccc(F)c6)cccc5[nH]4)c3c2)c1 [Compound 18, N-(5-(3-(4-(3-Fluorophenyl)-1H-benzo[d]imidazol-2-yl)-1H-indazol-5-yl)pyridin-3-yl)pentanamide] — 5-fold higher, 30 nM
